In patent publication US11168073B2, “3,3-difluoroallylamines or salts thereof and pharmaceutical compositions comprising the same” (YUHAN CORPORATION, priority 2018, dated 2021):
Structures can show the parent of a compound that is named as a salt. Where two headings read alike, the source gives them in different places.

What was measured:
Format in all cases: biochemical
recombinant human VAP-1 = biological target: T1, recombinant human VAP-1 (Homo sapiens, UniProt Q16853); experiment: Activity evaluation on recombinant human VAP-1 (Amplex Red/HRP-coupled hydrogen peroxide assay, benzylamine substrate); details: read-out: Inhibitory Activity (IC50, nM) human VAP-1
T1 construct: purchased R&D systems
T1 sequence (Q16853 1-763): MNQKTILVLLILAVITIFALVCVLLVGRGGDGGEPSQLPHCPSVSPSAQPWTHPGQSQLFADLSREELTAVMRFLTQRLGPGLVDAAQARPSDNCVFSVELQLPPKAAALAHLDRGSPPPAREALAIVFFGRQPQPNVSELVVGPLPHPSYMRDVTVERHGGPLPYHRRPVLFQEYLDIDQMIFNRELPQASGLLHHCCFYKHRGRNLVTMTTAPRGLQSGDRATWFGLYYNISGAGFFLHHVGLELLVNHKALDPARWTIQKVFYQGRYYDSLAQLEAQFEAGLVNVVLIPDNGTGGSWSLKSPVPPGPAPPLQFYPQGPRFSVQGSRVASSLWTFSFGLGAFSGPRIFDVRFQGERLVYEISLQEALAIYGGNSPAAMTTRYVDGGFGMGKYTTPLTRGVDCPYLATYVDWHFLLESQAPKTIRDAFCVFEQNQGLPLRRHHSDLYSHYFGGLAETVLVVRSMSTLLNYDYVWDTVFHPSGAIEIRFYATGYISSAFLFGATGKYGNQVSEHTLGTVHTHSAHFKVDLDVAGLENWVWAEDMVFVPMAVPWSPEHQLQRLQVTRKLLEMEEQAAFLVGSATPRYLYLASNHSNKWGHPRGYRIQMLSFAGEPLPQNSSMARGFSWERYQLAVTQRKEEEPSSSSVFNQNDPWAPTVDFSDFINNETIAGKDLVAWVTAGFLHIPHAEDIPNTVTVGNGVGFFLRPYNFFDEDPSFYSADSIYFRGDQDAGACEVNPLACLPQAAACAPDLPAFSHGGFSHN
Summary of the method: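 Recombinant human VAP-1 in 50 mM sodium phosphate pH 7.4 preincubated 30 min at 37 °C with compound (8-point 1:3 series, <1% DMSO), then 1 mM benzylamine, 200 uM Amplex Red, 1 U/mL HRP added. H2O2-derived resorufin fluorescence (ex 544/em 590) followed 1–2 h; IC50 from four-parameter fit of rate inhibition.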

[1] = biological target: T2, recombinant human MAO-A (monoamine oxidase-A) (Homo sapiens, UniProt P21397); experiment: Activity evaluation on recombinant human MAO-A (Amplex Red/HRP-coupled assay, 0.5 mM tyramine substrate); details: read-out: Inhibitory Activity (IC50, nM) MAO-A
T2 construct: purchased Sigma-Aldrich
T2 sequence (P21397 1-527): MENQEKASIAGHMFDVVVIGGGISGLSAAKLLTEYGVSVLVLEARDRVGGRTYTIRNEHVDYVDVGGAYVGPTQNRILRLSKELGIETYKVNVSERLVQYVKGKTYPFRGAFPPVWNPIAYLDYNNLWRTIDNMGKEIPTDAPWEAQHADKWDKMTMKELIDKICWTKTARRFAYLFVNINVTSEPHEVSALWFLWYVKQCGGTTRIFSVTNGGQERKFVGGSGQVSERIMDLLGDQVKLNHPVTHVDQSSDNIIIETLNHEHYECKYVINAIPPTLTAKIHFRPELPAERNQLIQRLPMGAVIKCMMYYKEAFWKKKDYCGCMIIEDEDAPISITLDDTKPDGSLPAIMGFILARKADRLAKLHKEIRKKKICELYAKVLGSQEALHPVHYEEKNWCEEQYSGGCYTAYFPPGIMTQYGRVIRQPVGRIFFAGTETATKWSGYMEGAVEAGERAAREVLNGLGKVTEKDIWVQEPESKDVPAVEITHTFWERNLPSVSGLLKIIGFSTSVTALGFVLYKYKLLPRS
Summary of the method: (§1)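 Compounds preincubated 30 min at 37 °C with enzyme in 50 mM sodium phosphate pH 7.4 (final DMSO <1%, 8-point 1:3 dilutions); reaction started with 200 uM Amplex Red, 1 U/mL HRP and substrate (MAO-A 0.5 mM tyramine, MAO-B 1 mM benzylamine, DAO 1 mM putrescine). Resorufin fluorescence (ex 544/em 590 nm) followed over 1-2 h; IC50 from four-parameter logistic fit.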

[2] = biological target: T3, recombinant human MAO-B (monoamine oxidase-B) (Homo sapiens, UniProt P27338); experiment: Activity evaluation on recombinant human MAO-B (Amplex Red/HRP-coupled assay, 1 mM benzylamine substrate); details: read-out: Inhibitory Activity (IC50, nM) MAO-B
T3 construct: purchased Sigma-Aldrich
T3 sequence (P27338 1-520): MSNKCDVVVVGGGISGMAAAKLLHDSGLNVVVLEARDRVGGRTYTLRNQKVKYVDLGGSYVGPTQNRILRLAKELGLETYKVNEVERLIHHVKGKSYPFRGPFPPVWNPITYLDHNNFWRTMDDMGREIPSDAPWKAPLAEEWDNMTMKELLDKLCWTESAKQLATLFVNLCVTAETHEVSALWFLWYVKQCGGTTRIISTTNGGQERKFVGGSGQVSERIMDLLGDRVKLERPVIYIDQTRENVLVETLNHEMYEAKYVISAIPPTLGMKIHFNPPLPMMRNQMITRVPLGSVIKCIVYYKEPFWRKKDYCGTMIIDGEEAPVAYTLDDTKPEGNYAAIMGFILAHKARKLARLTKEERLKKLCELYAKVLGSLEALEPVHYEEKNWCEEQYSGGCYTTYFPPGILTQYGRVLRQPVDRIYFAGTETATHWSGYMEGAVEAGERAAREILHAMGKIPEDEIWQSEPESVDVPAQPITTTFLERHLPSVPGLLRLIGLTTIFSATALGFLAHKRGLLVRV
Summary of the method: as §1

[3] = biological target: T4, recombinant human DAO (diamine oxidase) (Homo sapiens, UniProt P19801); experiment: Activity evaluation on recombinant human DAO (Amplex Red/HRP-coupled assay, 1 mM putrescine substrate); details: read-out: Inhibitory Activity (IC50, nM) DAO
T4 construct: purchased R&D systems
T4 sequence (P19801 20-751): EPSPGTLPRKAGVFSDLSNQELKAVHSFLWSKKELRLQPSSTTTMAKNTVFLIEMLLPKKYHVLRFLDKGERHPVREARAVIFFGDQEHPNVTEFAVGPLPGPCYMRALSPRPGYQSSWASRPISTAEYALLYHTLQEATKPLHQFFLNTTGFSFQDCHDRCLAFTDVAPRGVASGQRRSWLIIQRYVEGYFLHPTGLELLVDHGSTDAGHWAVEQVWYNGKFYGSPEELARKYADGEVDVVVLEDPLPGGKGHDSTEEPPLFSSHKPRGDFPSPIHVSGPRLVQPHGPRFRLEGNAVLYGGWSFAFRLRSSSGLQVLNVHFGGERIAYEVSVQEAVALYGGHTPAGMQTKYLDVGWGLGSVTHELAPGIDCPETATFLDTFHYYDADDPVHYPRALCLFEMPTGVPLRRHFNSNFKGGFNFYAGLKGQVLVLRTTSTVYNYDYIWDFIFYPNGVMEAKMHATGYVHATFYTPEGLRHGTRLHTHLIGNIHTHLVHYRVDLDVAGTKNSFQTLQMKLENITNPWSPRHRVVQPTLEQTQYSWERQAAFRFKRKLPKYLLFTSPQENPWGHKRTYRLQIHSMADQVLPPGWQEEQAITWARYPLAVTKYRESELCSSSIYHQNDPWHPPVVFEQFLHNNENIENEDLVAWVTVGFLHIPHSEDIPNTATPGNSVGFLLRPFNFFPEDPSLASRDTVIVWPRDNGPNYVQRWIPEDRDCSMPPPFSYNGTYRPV
Summary of the method: as §1

[4] = recombinant human VAP-1, 30 min preincubation at 37° C., 1 mM benzylamine
[5] = recombinant human VAP-1, benzylamine substrate

| IC50 (recombinant human VAP-1; [4]) | IC50 ([1]; 0.5 mM tyramine) | IC50 ([2]; 1 mM benzylamine) | IC50 ([3]; 1 mM putrescine) | IC50 (recombinant human VAP-1; [5]) | IC50 ([1]; 0.5 mM tyramine substrate) | IC50 ([2]; 1 mM benzylamine substrate) | IC50 ([3]; 1 mM putrescine substrate) | Compound |
| --- | --- | --- | --- | --- | --- | --- | --- | --- |
| 1.3 nM | > 100000 nM | 17000 nM | 670 nM | – | – | – | – | NCC(Cn1ncn(-c2ccc(-c3ccc(N4CCNCC4)cc3)cc2F)c1=O)=C(F)F [Example 32, 2-[2-(aminomethyl)-3,3-difluoro-allyl]-4-[2-fluoro-4-(4-piperazin-1-ylphenyl)phenyl]-1,2,4-triazol-3-one Ditrifluoroacetate] |
| 15 nM | > 100000 nM | > 100000 nM | 13000 nM | – | – | – | – | NCC(Cn1ncn(-c2cccc(-c3ccc(N4CCNCC4)cc3)c2)c1=O)=C(F)F [Example 18, 2-[2-(aminomethyl)-3,3-difluoro-allyl]-4-[3-(4-piperazin-1-ylphenyl)phenyl]-1,2,4-triazol-3-one Ditrifluoroacetate] |
| 1.2 nM | > 100000 nM | 46000 nM | 310 nM | – | – | – | – | NCC(Cn1ncn(-c2ccc(-c3ccc(N4CCNCC4)cc3)nc2)c1=O)=C(F)F [Example 39, 2-[2-(aminomethyl)-3,3-difluoro-allyl]-4-[6-(4-piperazin-1-ylphenyl)-3-pyridyl]-1,2,4-triazol-3-one Ditrifluoroacetate] |
| 6.6 nM | > 100000 nM | > 100000 nM | 620 nM | – | – | – | – | NCC(Cn1ncn(-c2cc(-c3ccc(N4CCNCC4)cc3)ccn2)c1=O)=C(F)F [Example 55, 2-[2-(aminomethyl)-3,3-difluoro-allyl]-4-[4-(4-piperazin-1-ylphenyl)-2-pyridyl]-1,2,4-triazol-3-one Ditrifluoroacetate] |

Further lines, the compound ahead of its results:

| Compound | IC50 (recombinant human VAP-1; [4]) | IC50 ([1]; 0.5 mM tyramine) | IC50 ([2]; 1 mM benzylamine) | IC50 ([3]; 1 mM putrescine) | IC50 (recombinant human VAP-1; [5]) | IC50 ([1]; 0.5 mM tyramine substrate) | IC50 ([2]; 1 mM benzylamine substrate) | IC50 ([3]; 1 mM putrescine substrate) |
| --- | --- | --- | --- | --- | --- | --- | --- | --- |
| CN1C(=O)CCc2cc(-c3cnc(-n4cnn(CC(CN)=C(F)F)c4=O)c(F)c3)ccc21 [Example 87, 6-[6-[1-[2-(aminomethyl)-3,3-difluoro-allyl]-5-oxo-1,2,4-triazol-4-yl]-5-fluoro-3-pyridyl]-1-methyl-3,4-dihydroquinolin-2-one Trifluoroacetate] | 0.1 nM | > 100000 nM | 1100 nM | 22 nM | – | – | – | – |
| NCC(Cn1ncn(Cc2ccc(-c3cn[nH]c3)s2)c1=O)=C(F)F [Example 292, 2-[2-(aminomethyl)-3,3-difluoro-allyl]-4-[[5-(1H-pyrazol-4-yl)-2-thienyl]methyl]-1,2,4-triazol-3-one Trifluoroacetate] | – | – | – | – | 2.7 nM | 86200 nM | > 100000 nM | > 100000 nM |
| NCC(Cn1ncn(Cc2ccc(-c3ccc4c(c3)COC(=O)N4)s2)c1=O)=C(F)F [Example 143, 6-[5-[[1-[2-(aminomethyl)-3,3-difluoro-allyl]-5-oxo-1,2,4-triazol-4-yl]methyl]-2-thienyl]-1,4-dihydro-3,1-benzoxazin-2-one Trifluoroacetate] | 0.2 nM | > 100000 nM | 6400 nM | > 10000 nM | – | – | – | – |
| CN(C)c1ccc(-c2ccc(CCn3cnn(CC(CN)=C(F)F)c3=O)s2)cn1 [Example 176, 2-[2-(aminomethyl)-3,3-difluoro-allyl]-4-[2-[5-[6-(dimethylamino)-3-pyridyl]-2-thienyl]ethyl]-1,2,4-triazol-3-one Trifluoroacetate] | 0.5 nM | > 100000 nM | > 100000 nM | 1100 nM | – | – | – | – |
| Cc1cc(-c2cccc(-c3cc[nH]n3)c2)cnc1-n1cnn(CC(CN)=C(F)F)c1=O [Example 232, 2-[2-(aminomethyl)-3,3-difluoro-allyl]-4-[3-methyl-5-[3-(1H-pyrazol-3-yl)phenyl]-2-pyridyl]-1,2,4-triazol-3-one Trifluoroacetate] | – | – | – | – | 0.5 nM | > 100000 nM | 1100 nM | 15000 nM |
| Cc1cc(-c2ccc3sc(Cn4cnn(CC(CN)=C(F)F)c4=O)cc3c2)cc2c1NC(=O)CC2 [Example 210, 6-[2-[[1-[2-(aminomethyl)-3,3-difluoro-allyl]-5-oxo-1,2,4-triazol-4-yl]methyl]benzothiophen-5-yl]-8-methyl-3,4-dihydro-1H-quinolin-2-one Trifluoroacetate] | – | – | – | – | 1.5 nM | > 100000 nM | > 100000 nM | 1230 nM |
| NCC(Cn1ncn(-c2cccc(-c3cccc(N4CCNCC4)c3)n2)c1=O)=C(F)F [Example 216, 2-[2-(aminomethyl)-3,3-difluoro-allyl]-4-[6-(3-piperazin-1-ylphenyl)-2-pyridyl]-1,2,4-triazol-3-one Ditrifluoroacetate] | – | – | – | – | 1.3 nM | > 100000 nM | > 100000 nM | 63 nM |
| CN1CC=C(c2ccc(Cn3cnn(CC(CN)=C(F)F)c3=O)s2)CC1 [Example 124, 2-[2-(aminomethyl)-3,3-difluoro-allyl]-4-[[5-(1-methyl-3,6-dihydro-2H-pyridin-4-yl)-2-thienyl]methyl]-1,2,4-triazol-3-one Trifluoroacetate] | 11 nM | > 100000 nM | > 100000 nM | > 100000 nM | – | – | – | – |
| CCn1cc(-c2ccc(Cn3cnn(CC(CN)=C(F)F)c3=O)s2)cn1 [Example 119, 2-[2-(aminomethyl)-3,3-difluoro-allyl]-4-[[5-(1-ethylpyrazol-4-yl)-2-thienyl]methyl]-1,2,4-triazol-3-one Trifluoroacetate] | 0.5 nM | > 100000 nM | 30000 nM | > 10000 nM | – | – | – | – |
